Results: patent US5580956A, “Phospholipase C-inhibiting peptides” (priority 1992, dated 1996)
In brackets after ≈: the same amount, converted by molar mass. Peptide text beside a SMILES is read from it. * marks the point of attachment. Cyclopentanecarbonyl = O=C(C1CCCC1)*; Hexanoyl = CCCCCC(=O)*

Key:
PLC-γ1 = molecular target: T1, PLC-γ1 (Bos taurus, UniProt P08487); assay: PLC-inhibiting activity (release of [3H]inositol phosphate from [3H]PIP2); format: biochemical, bovine; details: PI-PLC-γ1, 37° C., 10 minutes, read-out: Inhibition rate (%); for inhibition at 130 µM (stock): Concentration 130 μM (aqueous solution of test peptide)
T1 construct: A sample (PLC-γ1) was prepared from bovine thymus according to the method of Y. Homma et al; from tissue; host or cells: bovine thymus
T1 sequence (P08487 1-1291): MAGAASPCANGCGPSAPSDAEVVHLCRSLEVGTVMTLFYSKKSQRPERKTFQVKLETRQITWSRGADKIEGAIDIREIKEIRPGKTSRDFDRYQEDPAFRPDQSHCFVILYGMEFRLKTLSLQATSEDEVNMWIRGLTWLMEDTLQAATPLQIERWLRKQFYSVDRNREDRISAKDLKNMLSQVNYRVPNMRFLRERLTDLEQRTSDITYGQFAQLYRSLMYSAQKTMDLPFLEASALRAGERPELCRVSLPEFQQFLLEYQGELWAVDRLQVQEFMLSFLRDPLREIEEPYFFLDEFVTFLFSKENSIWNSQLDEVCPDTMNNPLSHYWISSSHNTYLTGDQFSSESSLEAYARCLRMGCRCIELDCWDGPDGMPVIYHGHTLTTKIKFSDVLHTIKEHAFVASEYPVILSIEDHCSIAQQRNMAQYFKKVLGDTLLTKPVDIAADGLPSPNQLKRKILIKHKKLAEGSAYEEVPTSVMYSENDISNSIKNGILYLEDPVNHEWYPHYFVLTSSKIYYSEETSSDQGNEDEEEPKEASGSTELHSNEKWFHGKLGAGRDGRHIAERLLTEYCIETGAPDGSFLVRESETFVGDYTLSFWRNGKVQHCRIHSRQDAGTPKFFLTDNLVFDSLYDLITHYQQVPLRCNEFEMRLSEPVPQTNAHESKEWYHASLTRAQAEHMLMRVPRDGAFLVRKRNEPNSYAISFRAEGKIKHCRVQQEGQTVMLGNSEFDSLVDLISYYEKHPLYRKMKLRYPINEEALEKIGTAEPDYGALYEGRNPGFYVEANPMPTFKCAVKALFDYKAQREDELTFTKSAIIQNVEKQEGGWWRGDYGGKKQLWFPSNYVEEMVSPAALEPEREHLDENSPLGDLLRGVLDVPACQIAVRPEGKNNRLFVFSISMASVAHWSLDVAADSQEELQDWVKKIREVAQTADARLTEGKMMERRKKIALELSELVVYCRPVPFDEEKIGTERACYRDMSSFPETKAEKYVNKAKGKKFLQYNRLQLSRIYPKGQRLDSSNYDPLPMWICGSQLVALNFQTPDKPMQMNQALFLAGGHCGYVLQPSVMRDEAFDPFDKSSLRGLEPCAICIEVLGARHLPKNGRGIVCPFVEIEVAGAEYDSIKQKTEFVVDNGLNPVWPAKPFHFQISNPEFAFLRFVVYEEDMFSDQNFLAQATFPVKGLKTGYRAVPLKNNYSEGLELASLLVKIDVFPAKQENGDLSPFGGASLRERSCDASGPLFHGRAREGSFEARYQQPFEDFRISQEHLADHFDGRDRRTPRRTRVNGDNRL
Experimental: A sample (PLC-γ1) was prepared from bovine thymus according to the method of Y. Homma et al. described in Biochemical Journal [(Biochem. J.), 269, 13 (1990)]. A solution having the composition listed in Table 1 below was prepared in advance on the ice and the reaction was begun with heating to 37° C. After incubation for 10 minutes, 2 ml of a solution mixture of chloroform/methanol (2:[…]) was added thereto to stop the reaction. The resulting inositol phosphate was extracted with 0.5 ml of 1N hydrochloric acid. Two-phase distribution was carried out by centrifugation (2000×g, 3 minutes), and the amount of ^3 H contained in 0.7 ml of the supernatant was measured with scintillation counter. […] The obtained value of specific radioactivity was defined as "A", the value of specific radioactivity obtained when an equivalent amount of water was added instead of the aqueous solution of the test peptide was defined as "B", the value of specific radioactivity obtained when an equivalent amount of water was added instead of the sample and the aqueous solution of the test peptide was defined as "C", and the inhibition rate (X) was determined according to the following equation. X(%)=[…]

KMS-4 cells = assay: Cell proliferation-inhibiting activity (BrdU incorporation, Amersham Cell Proliferation Detection Kit); format: cell-based; details: Concentration 31 μM, 17 hours with peptide, BrdU-stained cells
Experimental: The following procedure was carried out with an Amersham Cell Proliferation Detection Kit. First, cells [KMS-4; M. Nanba et al., International Journal of Cancer, 32, 697 (1983)] were suspended in a DMEM culture medium (product of Nissui Seiyaku) containing 10% fetal calf serum to a concentration of 1-2×10^4 cells/ml, and 1 ml of the above-mentioned cell suspension was put into each well of a 24-well plate (product of Corning Co.). The cells were cultured for 2 days in a CO2 incubator (37° C., 5% CO2). Next, the culture medium was exchanged with a DMEM medium containing 10% fetal calf serum, and then the test peptide was added thereto and culturing was carried out for 17 hours. The culture medium was again exchanged with a serum-free DMEM medium, 0.5 ml of a solution of the reagents labelled 5-bromo-2'-deoxyuridine (BrdU) and 5-fluoro-2'-deoxyuridine (FdU) [10:1] diluted 1000-fold with the same medium was added to each well, and cultured for 2 hours. The culture medium was removed, and the cells were immobilized with an acetic acid/ethanol solution. The immobilized cells were stained according to the method for the Amersham Cell Proliferation Kit, and then further stained with a 1% Giemsa solution (product of Merck Co.). The number of cells incorporating BrdU and the total cell count within 1 field of vision of the microscope (approximately 200 cells) were determined, and the proportion (%) of stained cells per field of vision was calculated. Furthermore, the same procedure was repeated 10 times, and the average value thereof was defined as the cell proliferation activity (%). The cell proliferation-inhibiting activity was calculated in the following manner. The proliferation activity without addition of peptide was defined as "A", the proliferation activity with addition of the test peptide was defined as "B", and the cell proliferation inhibition rate (X) was determined according to the following equation. X (%)=[…]

[1] = system: Proteus vulgaris ATCC6897; format: cell-based; details: ATCC6897, pH 7
Experimental: (§1) The antibacterial activity was determined by the agar dilution method using a culture medium (pH 7.0) containing 3 g/l bactotrypton (product of Difco Co.), 1 g/l meat extract, 1 g/l glucose and 16 g/l agar.

[2] = system: Pseudomonas aeruginosa Bin H No. 1; format: cell-based; details: Bin H No. 1, pH 7
Experimental: as §1

[3] = system: Bacillus subtilis No. 10107; format: cell-based; details: No. 10107, pH 7
Experimental: as §1

[4] = system: Enterococcus faecium ATCC10541; format: cell-based; details: ATCC10541, pH 7
Experimental: as §1

[5] = system: Salmonella typhi ATCC9902; format: cell-based; details: agar dilution, medium pH 7.0
Experimental: as §1

Shigella sonnei ATCC9290 = assay: Antibacterial activity, agar dilution method; format: cell-based; details: medium pH 7.0
Experimental: as §1

| Molecule | inhibition at 130 µM (stock) (PLC-γ1) | Cell proliferation inhibition rate (%) (KMS-4 cells) | MIC [1] | MIC [2] | MIC [3] | MIC [4] | MIC [5] | MIC (Shigella sonnei ATCC9290) | inhibition at 160 µM (stock) (PLC-γ1; Concentration 160 μM (aqueous solution of test peptide)) |
| --- | --- | --- | --- | --- | --- | --- | --- | --- | --- |
| CSCC[C@H](NC(=O)[C@H](CCCCN)NC(=O)[C@H](CCCNC(=N)N)NC(=O)[C@H](Cc1ccc(O)cc1)NC(=O)[C@H](CC(C)C)NC(=O)C1CCCC1)C(=O)N[C@@H](CCCNC(=N)N)C(=O)N[C@@H](CC(C)C)C(=O)N[C@@H](CCCNC(=N)N)C(=O)N[C@@H](Cc1ccc(O)cc1)C(=O)N1CCC[C@H]1C(=O)N[C@H](C(N)=O)C(C)C [(I-26), C5 H9 CO-Leu-Tyr-Arg-Lys-Met-Arg-Leu-Arg-Tyr-pro-Val-NH2] (Cyclopentanecarbonyl-LYRKMRLRYPV-NH2) | 23% | 71% | 83 µg/mL (≈ 52.2 µM) | 42 µg/mL (≈ 26.4 µM) |  |  |  |  |  |
| CCCCCC(=O)N[C@@H](CC(C)C)C(=O)N[C@@H](Cc1ccc(O)cc1)C(=O)N[C@@H](CCCNC(=N)N)C(=O)N[C@@H](CCCCN)C(=O)N[C@@H](CCSC)C(=O)N[C@@H](CCCNC(=N)N)C(=O)N[C@@H](CC(C)C)C(=O)N[C@@H](CCCNC(=N)N)C(=O)N[C@@H](Cc1ccc(O)cc1)C(=O)N1CCC[C@H]1C(=O)N[C@H](C(N)=O)C(C)C [(I-27), CH3 (CH2)4 CO-Leu-Tyr-Arg-Lys-Met-Arg-Leu-Arg-Tyr-Pro-Val-NH2] (Hexanoyl-LYRKMRLRYPV-NH2) | 35% | 28% | 83 µg/mL (≈ 52.1 µM) | 42 µg/mL (≈ 26.4 µM) | 83 µg/mL (≈ 52.1 µM) | 83 µg/mL (≈ 52.1 µM) | 83 µg/mL (≈ 52.1 µM) | 83 µg/mL (≈ 52.1 µM) |  |
| Ac-YRKMRLRY-NH2 [Compound (I-10), CH3 CO-Tyr-Arg-Lys-Met -Arg-Leu-Arg-Tyr-NH2] |  |  | 83 µg/mL | 83 µg/mL | 83 µg/mL | 83 µg/mL |  |  | 26% |
